In ChEMBL document CHEMBL3991601, “The target landscape of clinical kinase drugs” (Science, 2017):
Calls of active or inactive are those of the source. Rule as the data show it, for most assays here: actives have a measured Kd and inactives only a lower limit.

Columns and labels:
[1] = target: RAC-alpha serine/threonine-protein kinase (Homo sapiens, UniProt P31749)
[2] = target: T1, Bone morphogenetic protein receptor type-2 (Homo sapiens, UniProt Q13873)
T1 sequence (Q13873 whole entry): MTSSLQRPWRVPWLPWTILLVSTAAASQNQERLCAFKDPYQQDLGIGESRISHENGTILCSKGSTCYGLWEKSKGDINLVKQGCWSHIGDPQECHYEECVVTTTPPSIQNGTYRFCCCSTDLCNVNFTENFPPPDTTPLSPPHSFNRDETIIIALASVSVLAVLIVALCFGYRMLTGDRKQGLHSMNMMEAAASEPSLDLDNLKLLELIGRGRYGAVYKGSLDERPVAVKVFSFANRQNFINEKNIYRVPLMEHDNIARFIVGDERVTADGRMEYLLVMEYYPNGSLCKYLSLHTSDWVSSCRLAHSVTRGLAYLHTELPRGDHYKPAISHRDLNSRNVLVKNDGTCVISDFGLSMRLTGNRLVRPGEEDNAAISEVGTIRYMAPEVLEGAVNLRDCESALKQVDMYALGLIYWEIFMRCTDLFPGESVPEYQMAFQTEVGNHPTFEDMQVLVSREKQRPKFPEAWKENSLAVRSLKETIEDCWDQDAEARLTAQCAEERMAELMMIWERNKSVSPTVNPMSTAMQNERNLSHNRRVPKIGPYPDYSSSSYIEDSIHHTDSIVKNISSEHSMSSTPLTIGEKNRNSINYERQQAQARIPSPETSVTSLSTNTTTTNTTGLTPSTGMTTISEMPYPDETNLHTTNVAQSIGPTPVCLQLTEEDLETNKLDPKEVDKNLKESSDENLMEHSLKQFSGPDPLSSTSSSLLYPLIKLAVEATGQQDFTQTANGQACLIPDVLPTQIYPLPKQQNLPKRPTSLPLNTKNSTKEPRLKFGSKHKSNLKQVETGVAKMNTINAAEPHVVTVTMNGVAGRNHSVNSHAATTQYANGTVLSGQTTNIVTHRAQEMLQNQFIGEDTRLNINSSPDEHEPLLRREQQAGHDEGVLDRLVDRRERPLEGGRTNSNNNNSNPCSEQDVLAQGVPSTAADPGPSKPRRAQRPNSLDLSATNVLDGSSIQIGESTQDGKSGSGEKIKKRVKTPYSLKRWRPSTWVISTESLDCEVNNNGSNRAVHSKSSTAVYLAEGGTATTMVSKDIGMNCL

[3] = target: Cyclin-dependent kinase 12 (Homo sapiens, UniProt Q9NYV4)
[4] = target: Cyclin-dependent kinase 13 (Homo sapiens, UniProt Q14004)
[5] = target: Dual specificity protein kinase CLK1 (Homo sapiens, UniProt P49759)
[6] = target: Casein kinase II subunit alpha' (Homo sapiens, UniProt P19784)
Ephrin type-A receptor 5 = Ephrin type-A receptor 5 (Homo sapiens, UniProt P54756)
GTP-binding protein 4 = GTP-binding protein 4 (Homo sapiens, UniProt Q9BZE4)
[7] = target: Mitogen-activated protein kinase 1 (Homo sapiens, UniProt P28482)
[8] = target: Mitogen-activated protein kinase 10 (Homo sapiens, UniProt P53779)
[9] = target: T2, MAP kinase-activated protein kinase 5 (Homo sapiens, UniProt Q8IW41)
T2 sequence (Q8IW41 whole entry): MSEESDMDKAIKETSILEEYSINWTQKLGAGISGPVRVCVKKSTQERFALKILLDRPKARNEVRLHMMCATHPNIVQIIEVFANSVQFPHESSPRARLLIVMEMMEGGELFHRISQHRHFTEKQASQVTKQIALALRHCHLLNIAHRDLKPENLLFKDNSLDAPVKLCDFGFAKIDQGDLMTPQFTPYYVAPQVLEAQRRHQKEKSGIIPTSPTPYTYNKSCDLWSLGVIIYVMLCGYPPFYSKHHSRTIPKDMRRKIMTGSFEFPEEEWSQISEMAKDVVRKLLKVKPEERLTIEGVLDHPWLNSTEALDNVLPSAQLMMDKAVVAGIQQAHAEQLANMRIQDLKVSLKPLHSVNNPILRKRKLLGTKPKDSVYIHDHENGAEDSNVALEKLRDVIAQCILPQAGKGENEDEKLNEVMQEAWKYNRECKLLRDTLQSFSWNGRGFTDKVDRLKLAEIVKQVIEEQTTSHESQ

[10] = target: GTP-binding nuclear protein Ran (Homo sapiens, UniProt P62826)
[11] = target: T3, Serine/threonine-protein kinase 4 (Homo sapiens, UniProt Q13043)
T3 sequence (Q13043 whole entry): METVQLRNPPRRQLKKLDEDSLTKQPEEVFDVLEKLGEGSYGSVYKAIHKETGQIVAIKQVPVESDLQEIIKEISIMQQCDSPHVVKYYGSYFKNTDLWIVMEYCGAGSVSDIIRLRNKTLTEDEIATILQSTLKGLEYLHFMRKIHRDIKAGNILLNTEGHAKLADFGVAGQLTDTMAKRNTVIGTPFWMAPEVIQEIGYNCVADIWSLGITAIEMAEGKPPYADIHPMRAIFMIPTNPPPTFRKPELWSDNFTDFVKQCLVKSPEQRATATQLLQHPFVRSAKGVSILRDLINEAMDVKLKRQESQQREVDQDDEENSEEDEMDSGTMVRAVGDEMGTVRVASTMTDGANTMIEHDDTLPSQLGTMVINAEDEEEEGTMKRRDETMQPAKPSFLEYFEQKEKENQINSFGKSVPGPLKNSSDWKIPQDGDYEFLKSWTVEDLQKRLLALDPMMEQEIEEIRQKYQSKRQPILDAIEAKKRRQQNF

TGF-beta receptor type-2 = TGF-beta receptor type-2 (Homo sapiens, UniProt P37173)
[12] = target: TRAF2 and NCK-interacting protein kinase (Homo sapiens, UniProt Q9UKE5)
Also: in the data inactive means no Kd found up to 30 µM.

Chain of RAC-alpha serine/threonine-protein kinase (P31749 whole entry): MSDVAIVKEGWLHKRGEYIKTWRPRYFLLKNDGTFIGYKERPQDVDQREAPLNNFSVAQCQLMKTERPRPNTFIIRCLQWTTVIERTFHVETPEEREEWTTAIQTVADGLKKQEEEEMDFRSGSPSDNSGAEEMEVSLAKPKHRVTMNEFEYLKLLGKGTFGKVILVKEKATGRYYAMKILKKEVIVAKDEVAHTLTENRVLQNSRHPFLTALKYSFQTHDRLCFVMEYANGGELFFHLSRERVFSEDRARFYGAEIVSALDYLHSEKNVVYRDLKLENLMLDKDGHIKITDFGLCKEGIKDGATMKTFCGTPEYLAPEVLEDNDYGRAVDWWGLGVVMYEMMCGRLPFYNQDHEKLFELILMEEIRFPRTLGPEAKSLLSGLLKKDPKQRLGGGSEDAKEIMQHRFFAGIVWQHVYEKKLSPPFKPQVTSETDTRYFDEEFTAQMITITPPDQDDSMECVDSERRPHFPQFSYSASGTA
Chain of TRAF2 and NCK-interacting protein kinase (Q9UKE5 whole entry): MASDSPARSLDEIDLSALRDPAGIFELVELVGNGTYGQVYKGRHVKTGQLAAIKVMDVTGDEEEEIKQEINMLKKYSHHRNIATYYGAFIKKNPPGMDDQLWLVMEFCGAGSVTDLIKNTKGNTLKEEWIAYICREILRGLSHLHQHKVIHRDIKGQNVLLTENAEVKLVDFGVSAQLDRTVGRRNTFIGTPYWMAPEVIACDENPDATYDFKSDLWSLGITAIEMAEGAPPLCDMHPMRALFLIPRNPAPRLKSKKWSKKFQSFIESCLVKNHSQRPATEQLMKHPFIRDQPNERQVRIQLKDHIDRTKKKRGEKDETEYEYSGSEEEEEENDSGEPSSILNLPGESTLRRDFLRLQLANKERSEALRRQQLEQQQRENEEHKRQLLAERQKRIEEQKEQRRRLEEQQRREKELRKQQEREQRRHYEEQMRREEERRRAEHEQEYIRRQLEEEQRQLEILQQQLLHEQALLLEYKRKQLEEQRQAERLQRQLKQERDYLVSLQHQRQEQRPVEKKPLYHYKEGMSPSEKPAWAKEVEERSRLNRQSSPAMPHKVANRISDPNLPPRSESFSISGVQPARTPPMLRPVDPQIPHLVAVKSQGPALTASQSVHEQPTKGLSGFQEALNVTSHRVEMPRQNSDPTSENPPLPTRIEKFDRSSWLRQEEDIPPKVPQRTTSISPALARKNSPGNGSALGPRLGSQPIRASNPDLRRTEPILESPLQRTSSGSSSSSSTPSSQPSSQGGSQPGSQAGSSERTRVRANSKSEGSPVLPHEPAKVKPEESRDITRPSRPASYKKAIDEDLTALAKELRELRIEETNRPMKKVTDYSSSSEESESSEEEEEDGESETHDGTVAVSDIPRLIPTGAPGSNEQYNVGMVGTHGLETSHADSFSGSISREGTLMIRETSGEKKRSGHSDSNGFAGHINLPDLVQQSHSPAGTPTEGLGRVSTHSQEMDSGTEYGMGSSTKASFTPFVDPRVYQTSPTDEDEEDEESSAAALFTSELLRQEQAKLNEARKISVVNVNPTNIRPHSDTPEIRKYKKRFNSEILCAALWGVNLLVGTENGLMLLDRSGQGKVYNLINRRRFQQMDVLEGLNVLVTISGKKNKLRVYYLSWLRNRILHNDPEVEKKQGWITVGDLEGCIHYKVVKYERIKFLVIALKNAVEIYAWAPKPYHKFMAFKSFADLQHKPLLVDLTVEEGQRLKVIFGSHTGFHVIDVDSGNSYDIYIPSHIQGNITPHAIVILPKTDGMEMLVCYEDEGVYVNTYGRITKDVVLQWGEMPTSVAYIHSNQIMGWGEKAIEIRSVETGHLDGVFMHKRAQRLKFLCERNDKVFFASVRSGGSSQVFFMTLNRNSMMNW
Chain of Casein kinase II subunit alpha' (P19784 whole entry): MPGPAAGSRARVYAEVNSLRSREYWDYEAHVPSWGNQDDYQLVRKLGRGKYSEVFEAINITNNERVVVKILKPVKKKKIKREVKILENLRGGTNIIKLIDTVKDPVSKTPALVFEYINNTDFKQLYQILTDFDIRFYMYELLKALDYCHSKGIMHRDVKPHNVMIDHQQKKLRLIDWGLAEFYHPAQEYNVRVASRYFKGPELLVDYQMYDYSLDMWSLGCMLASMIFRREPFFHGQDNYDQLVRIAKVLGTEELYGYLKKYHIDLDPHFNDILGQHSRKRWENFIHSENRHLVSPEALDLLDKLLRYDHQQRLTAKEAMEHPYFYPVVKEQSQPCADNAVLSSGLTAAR
Chain of Cyclin-dependent kinase 12 (Q9NYV4 whole entry): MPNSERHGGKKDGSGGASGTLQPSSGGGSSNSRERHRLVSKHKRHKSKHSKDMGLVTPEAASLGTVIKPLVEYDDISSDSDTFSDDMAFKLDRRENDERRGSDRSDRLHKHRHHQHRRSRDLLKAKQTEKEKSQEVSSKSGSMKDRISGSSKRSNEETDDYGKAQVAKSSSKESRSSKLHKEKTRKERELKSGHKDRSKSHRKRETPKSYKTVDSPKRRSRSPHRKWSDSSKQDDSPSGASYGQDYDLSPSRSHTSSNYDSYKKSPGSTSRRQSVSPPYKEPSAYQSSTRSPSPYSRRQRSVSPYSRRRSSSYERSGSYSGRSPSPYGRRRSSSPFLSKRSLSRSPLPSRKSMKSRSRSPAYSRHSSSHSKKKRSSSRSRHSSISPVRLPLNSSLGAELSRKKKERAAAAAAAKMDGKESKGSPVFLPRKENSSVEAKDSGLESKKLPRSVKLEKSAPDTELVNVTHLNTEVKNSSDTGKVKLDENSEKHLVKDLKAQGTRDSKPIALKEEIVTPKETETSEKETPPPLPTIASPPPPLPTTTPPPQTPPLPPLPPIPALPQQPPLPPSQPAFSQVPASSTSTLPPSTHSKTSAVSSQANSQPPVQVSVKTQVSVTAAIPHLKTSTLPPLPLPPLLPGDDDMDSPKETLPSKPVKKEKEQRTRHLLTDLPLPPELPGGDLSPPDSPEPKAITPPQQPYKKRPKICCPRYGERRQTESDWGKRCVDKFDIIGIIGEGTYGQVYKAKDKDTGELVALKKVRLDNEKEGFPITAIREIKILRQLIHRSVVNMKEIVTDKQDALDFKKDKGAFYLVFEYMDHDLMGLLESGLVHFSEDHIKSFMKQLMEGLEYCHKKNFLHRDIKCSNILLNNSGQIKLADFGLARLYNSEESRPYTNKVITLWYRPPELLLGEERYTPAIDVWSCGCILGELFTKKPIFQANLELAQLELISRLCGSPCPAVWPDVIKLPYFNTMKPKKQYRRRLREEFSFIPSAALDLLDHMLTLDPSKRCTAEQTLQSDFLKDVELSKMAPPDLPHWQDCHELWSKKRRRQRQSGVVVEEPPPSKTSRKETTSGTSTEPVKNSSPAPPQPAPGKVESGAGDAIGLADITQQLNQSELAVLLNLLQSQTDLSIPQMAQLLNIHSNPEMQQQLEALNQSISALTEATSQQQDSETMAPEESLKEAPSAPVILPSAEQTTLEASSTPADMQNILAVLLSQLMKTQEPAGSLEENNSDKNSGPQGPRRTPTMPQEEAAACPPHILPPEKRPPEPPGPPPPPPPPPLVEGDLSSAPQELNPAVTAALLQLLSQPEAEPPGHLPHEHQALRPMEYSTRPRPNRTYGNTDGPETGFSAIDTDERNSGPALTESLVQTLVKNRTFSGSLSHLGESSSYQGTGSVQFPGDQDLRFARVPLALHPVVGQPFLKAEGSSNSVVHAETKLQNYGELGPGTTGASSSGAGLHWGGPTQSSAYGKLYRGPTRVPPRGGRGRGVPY
Chain of TGF-beta receptor type-2 (P37173 whole entry): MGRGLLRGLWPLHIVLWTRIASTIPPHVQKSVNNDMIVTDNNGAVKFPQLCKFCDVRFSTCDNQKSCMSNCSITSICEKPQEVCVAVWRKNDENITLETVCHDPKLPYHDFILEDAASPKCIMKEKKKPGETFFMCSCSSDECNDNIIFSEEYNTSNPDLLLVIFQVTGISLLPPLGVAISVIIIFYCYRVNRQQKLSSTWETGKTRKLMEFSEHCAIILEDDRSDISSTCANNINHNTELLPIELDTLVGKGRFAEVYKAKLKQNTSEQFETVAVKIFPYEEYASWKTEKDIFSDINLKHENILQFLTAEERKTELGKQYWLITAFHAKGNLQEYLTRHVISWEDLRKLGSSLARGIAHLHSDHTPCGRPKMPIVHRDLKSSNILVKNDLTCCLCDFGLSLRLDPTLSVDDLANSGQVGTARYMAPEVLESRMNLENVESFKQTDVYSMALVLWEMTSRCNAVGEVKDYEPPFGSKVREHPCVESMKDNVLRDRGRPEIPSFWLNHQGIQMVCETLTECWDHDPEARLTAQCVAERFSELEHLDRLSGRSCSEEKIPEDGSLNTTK
Chain of Dual specificity protein kinase CLK1 (P49759 whole entry): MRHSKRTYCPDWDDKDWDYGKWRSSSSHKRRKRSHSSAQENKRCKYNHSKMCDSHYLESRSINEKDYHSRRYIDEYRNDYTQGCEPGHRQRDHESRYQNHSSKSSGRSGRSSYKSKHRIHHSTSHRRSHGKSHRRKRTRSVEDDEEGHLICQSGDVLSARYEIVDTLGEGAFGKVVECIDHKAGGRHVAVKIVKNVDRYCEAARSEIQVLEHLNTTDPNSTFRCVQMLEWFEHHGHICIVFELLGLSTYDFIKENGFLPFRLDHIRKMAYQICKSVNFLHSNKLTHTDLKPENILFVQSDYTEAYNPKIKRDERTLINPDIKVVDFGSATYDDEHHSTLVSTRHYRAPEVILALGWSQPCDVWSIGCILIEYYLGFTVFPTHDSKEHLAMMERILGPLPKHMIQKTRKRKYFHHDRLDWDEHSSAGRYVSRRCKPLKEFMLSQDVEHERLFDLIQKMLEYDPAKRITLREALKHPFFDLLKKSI

SMILES	Kd [1]	Kd [2]	Kd [3]	Kd [4]	Kd [5]	Kd [6]	Kd (Ephrin type-A receptor 5)	Kd (GTP-binding protein 4)	Kd [7]	Kd [8]	Kd [9]	Kd [10]	Kd [11]	Kd (TGF-beta receptor type-2)	Kd [12]
O=C(NOC[C@H](O)CO)c1ccc(F)c(F)c1Nc1ccc(I)cc1F [MIRDAMETINIB]	> 30 µM (inactive)	> 30 µM (inactive)	> 30 µM (inactive)	> 30 µM (inactive)	> 30 µM (inactive)	> 30 µM (inactive)	> 30 µM (inactive)	> 30 µM (inactive)	> 30 µM (inactive)	> 30 µM (inactive)	> 30 µM (inactive)	> 30 µM (inactive)	> 30 µM (inactive)	> 30 µM (inactive)	> 30 µM (inactive)
O=C(NC[C@H](O)CO)c1ccncc1Nc1ccc(I)cc1F [PIMASERTIB]	> 30 µM (inactive)	> 30 µM (inactive)	> 30 µM (inactive)	> 30 µM (inactive)	> 30 µM (inactive)	> 30 µM (inactive)	> 30 µM (inactive)	> 30 µM (inactive)	> 30 µM (inactive)	> 30 µM (inactive)	> 30 µM (inactive)	> 30 µM (inactive)	> 30 µM (inactive)	> 30 µM (inactive)	> 30 µM (inactive)
Cc1cc(-c2cc(OC(=O)c3ccccc3)ccc2Cl)cc2nnc(Nc3ccc(OCCN4CCCC4)cc3)nc12 [TG100-801]	> 30 µM (inactive)	> 30 µM (inactive)	> 30 µM (inactive)	> 30 µM (inactive)	> 30 µM (inactive)	> 30 µM (inactive)	> 30 µM (inactive)	> 30 µM (inactive)	> 30 µM (inactive)	> 30 µM (inactive)	> 30 µM (inactive)	> 30 µM (inactive)	> 30 µM (inactive)	0.703 µM (active)	> 30 µM (inactive)
O=C(Nc1ccc(OC(F)(F)F)cc1)c1sccc1NCc1ccnc2ccccc12 [OSI-930]	> 30 µM (inactive)	> 30 µM (inactive)	> 30 µM (inactive)	> 30 µM (inactive)	> 30 µM (inactive)	> 30 µM (inactive)	> 30 µM (inactive)	> 30 µM (inactive)	> 30 µM (inactive)	> 30 µM (inactive)	> 30 µM (inactive)	> 30 µM (inactive)	> 30 µM (inactive)	> 30 µM (inactive)	> 30 µM (inactive)
C=CCN(/C=C1/C(=O)O[C@H](COC)[C@@]2(C)C1=C(O)C(=O)C1=C2[C@H](OC(C)=O)C[C@]2(C)C(=O)CC[C@@H]12)CC=C [SONOLISIB]	> 30 µM (inactive)	> 30 µM (inactive)	> 30 µM (inactive)	> 30 µM (inactive)	> 30 µM (inactive)	> 30 µM (inactive)	> 30 µM (inactive)	> 30 µM (inactive)	> 30 µM (inactive)	> 30 µM (inactive)	> 30 µM (inactive)	> 30 µM (inactive)	> 30 µM (inactive)	> 30 µM (inactive)	> 30 µM (inactive)
COc1cc2nccc(Oc3ccc(NC(=O)C4(C(=O)Nc5ccc(F)cc5)CC4)cc3)c2cc1OC [CABOZANTINIB]	> 30 µM (inactive)	> 30 µM (inactive)	> 30 µM (inactive)	> 30 µM (inactive)	> 30 µM (inactive)	> 30 µM (inactive)	> 30 µM (inactive)	> 30 µM (inactive)	> 30 µM (inactive)	> 30 µM (inactive)	> 30 µM (inactive)	> 30 µM (inactive)	> 30 µM (inactive)	> 30 µM (inactive)	> 30 µM (inactive)
C[C@@H]1COC(Nc2ccc3ncnc(Nc4ccc(OCc5nccs5)c(Cl)c4)c3c2)=N1 [VARLITINIB]	> 30 µM (inactive)	> 30 µM (inactive)	> 30 µM (inactive)	> 30 µM (inactive)	> 30 µM (inactive)	> 30 µM (inactive)	> 30 µM (inactive)	> 30 µM (inactive)	> 30 µM (inactive)	> 30 µM (inactive)	> 30 µM (inactive)	> 30 µM (inactive)	> 30 µM (inactive)	> 30 µM (inactive)	> 30 µM (inactive)
Cc1c(NC(=O)OC[C@@H]2COCCN2)cn2ncnc(Nc3ccc4c(cnn4Cc4cccc(F)c4)c3)c12 [AC-480]	> 30 µM (inactive)	> 30 µM (inactive)	> 30 µM (inactive)	> 30 µM (inactive)	> 30 µM (inactive)	> 30 µM (inactive)	> 30 µM (inactive)	> 30 µM (inactive)	> 30 µM (inactive)	> 30 µM (inactive)	> 30 µM (inactive)	> 30 µM (inactive)	> 30 µM (inactive)	> 30 µM (inactive)	> 30 µM (inactive)
Cc1cc(Nc2nc(N[C@@H](C)c3ncc(F)cn3)ncc2Cl)n[nH]1 [AZD-1480]	> 30 µM (inactive)	> 30 µM (inactive)	> 30 µM (inactive)	> 30 µM (inactive)	> 30 µM (inactive)	3.96 µM (active)	> 30 µM (inactive)	> 30 µM (inactive)	> 30 µM (inactive)	> 30 µM (inactive)	> 30 µM (inactive)	> 30 µM (inactive)	0.861 µM (active)	> 30 µM (inactive)	> 30 µM (inactive)
CCc1cc2c(cc1N1CCC(N3CCOCC3)CC1)C(C)(C)c1[nH]c3cc(C#N)ccc3c1C2=O [ALECTINIB]	> 30 µM (inactive)	> 30 µM (inactive)	> 30 µM (inactive)	> 30 µM (inactive)	29.9 µM (active)	> 30 µM (inactive)	> 30 µM (inactive)	> 30 µM (inactive)	> 30 µM (inactive)	> 30 µM (inactive)	> 30 µM (inactive)	> 30 µM (inactive)	> 30 µM (inactive)	> 30 µM (inactive)	> 30 µM (inactive)
FC(F)(F)c1ccc(CNc2ccc(Cc3c[nH]c4ncc(Cl)cc34)cn2)cn1 [PEXIDARTINIB]	> 30 µM (inactive)	> 30 µM (inactive)	> 30 µM (inactive)	> 30 µM (inactive)	> 30 µM (inactive)	> 30 µM (inactive)	> 30 µM (inactive)	> 30 µM (inactive)	> 30 µM (inactive)	> 30 µM (inactive)	> 30 µM (inactive)	> 30 µM (inactive)	> 30 µM (inactive)	> 30 µM (inactive)	> 30 µM (inactive)
